{"source": "patent US8367087B2", "about": "“Soil amendment compositions and methods for using the same” (priority 1998, dated 2013)", "tested_on": "J2 larvae of the Root Knot Nematode (Meloidogyne incognita)", "assay": "Touch response of J2 larvae after 24 hours exposure to predisposing agents", "assay_type": "in vivo", "experimental": "The merits of alternative predisposing agents were examined by subjecting J2 larvae of the Root Knot Nematode (Meloidogyne incognita) to solutions of lignosulfonate and gallic acid. J2 larvae were exposed 24 hours to various concentrations of the materials in shallow 50 ml beakers. Following exposure, nematodes were inspected for activity level using touch response: […]", "data": [{"smiles": "O=C(O)c1cc(O)c(O)c(O)c1", "note": "[Gal Ac, Gallic Acid]", "values": [{"measurement": "Control %", "setting": "5 ppm", "value": 30.7, "unit": "%"}, {"measurement": "active, responding nematodes per total examined (viable/total), Mean", "setting": "5 ppm", "value": "312/450"}, {"measurement": "active, responding nematodes per total examined (viable/total), Replication 1", "setting": "5 ppm", "value": "305/462"}, {"measurement": "active, responding nematodes per total examined (viable/total), Replication 2", "setting": "5 ppm", "value": "316/440"}, {"measurement": "active, responding nematodes per total examined (viable/total), Replication 3", "setting": "5 ppm", "value": "326/447"}, {"measurement": "active, responding nematodes per total examined (viable/total), Replication 4", "setting": "5 ppm", "value": "302/450"}, {"measurement": "active, responding nematodes per total examined (viable/total), Total", "setting": "5 ppm", "value": "1249/1799"}, {"measurement": "Control %", "setting": "25 ppm", "value": 47.7, "unit": "%"}, {"measurement": "active, responding nematodes per total examined (viable/total), Mean", "setting": "25 ppm", "value": "239/457"}, {"measurement": "active, responding nematodes per total examined (viable/total), Replication 1", "setting": "25 ppm", "value": "250/458"}, {"measurement": "active, responding nematodes per total examined (viable/total), Replication 2", "setting": "25 ppm", "value": "248/449"}, {"measurement": "active, responding nematodes per total examined (viable/total), Replication 3", "setting": "25 ppm", "value": "232/459"}, {"measurement": "active, responding nematodes per total examined (viable/total), Replication 4", "setting": "25 ppm", "value": "225/462"}, {"measurement": "active, responding nematodes per total examined (viable/total), Total", "setting": "25 ppm", "value": "955/1828"}, {"measurement": "Control %", "setting": "100 ppm", "value": 60.9, "unit": "%"}, {"measurement": "active, responding nematodes per total examined (viable/total), Mean", "setting": "100 ppm", "value": "176/450"}, {"measurement": "active, responding nematodes per total examined (viable/total), Replication 1", "setting": "100 ppm", "value": "193/450"}, {"measurement": "active, responding nematodes per total examined (viable/total), Replication 2", "setting": "100 ppm", "value": "185/448"}, {"measurement": "active, responding nematodes per total examined (viable/total), Replication 3", "setting": "100 ppm", "value": "176/436"}, {"measurement": "active, responding nematodes per total examined (viable/total), Replication 4", "setting": "100 ppm", "value": "150/464"}, {"measurement": "active, responding nematodes per total examined (viable/total), Total", "setting": "100 ppm", "value": "704/1798"}, {"measurement": "Control %", "setting": "1000 ppm", "value": 92.7, "unit": "%"}, {"measurement": "active, responding nematodes per total examined (viable/total), Mean", "setting": "1000 ppm", "value": "33/452"}, {"measurement": "active, responding nematodes per total examined (viable/total), Replication 1", "setting": "1000 ppm", "value": "25/449"}, {"measurement": "active, responding nematodes per total examined (viable/total), Replication 2", "setting": "1000 ppm", "value": "39/444"}, {"measurement": "active, responding nematodes per total examined (viable/total), Replication 3", "setting": "1000 ppm", "value": "40/454"}, {"measurement": "active, responding nematodes per total examined (viable/total), Replication 4", "setting": "1000 ppm", "value": "27/460"}, {"measurement": "active, responding nematodes per total examined (viable/total), Total", "setting": "1000 ppm", "value": "131/1807"}]}]}
